Experimental data from patent US10744175B2, “Herbal composition for the treatment of Herpes” (priority 2016, dated 2020).

Test system: Herpes simplex virus
Experiment: Administration to human subjects with Herpes symptoms (case reports)
Format: in vivo
Settings: case 3: taken for years by man and woman positive for HSV 1 and 2
Experimental: • 1. Frequent Genital herpes outbreaks—A person from Karnataka, India, suffers from severe blistering, pain and burning around the pubic region and genitals due to one or more strains of the Herpes virus. The composition of the invention as disclosed in Example 1 is administered. […] Tiny pimple-like outbreaks around lips—A person—starts experiencing tiny pimples on their lips which later appear like blisters. Blood tests show high titer from HSV 1 antibodies. […] Each tests positive for HSV 1 and 2. […] A person reports the presence of abnormal cells along with the presence of HPV. These cells then develop into “pre-cancerous” cells. This subject daily ingests the composition of Example 1 for 4 months. […] After administration of the composition of Example 1 for over 6 months, the results for HPV come back negative. • 6. A person reports warts on their hands for about 6 years which they remove with laser therapy. This burns the skin and leaves scars. […] A person reports an HPV infection for 5 years. Within the first 6 months of daily ingestion of the composition of Example 1, all tests for HPV are negative and no recurrence is shown. • 8. A person ingests the composition of Example 1 along with an alkaline diet. This subject suffers from larger warts (around 10 in number). […]

Nc1nc2c(ncn2COCCO)c(=O)[nH]1 [acyclovir]
outcome of previous antiviral treatment: little success
